# In article PMC11833358 (Food Chemistry: X, 2025):
# “And” between values parts separate entries of the source, which are not always exact repeats. Equal entries are not always repeated. Marks after values point to notes of the source that are not given here.
# What was measured:
# Caco-2 cell monolayer [1] = conditions: for ER (efflux ratio, Papp(BL→AP)/Papp(AP→BL)) / Papp (AP→BL) / Papp (BL→AP): constituent of DS 100 μg/mL, 180 min; for Papp (AP→BL) / Papp (BL→AP): from UPLC-ESI-MS/MS peak areas
# in vitro = conditions: human, Caco-2
# Caco-2 cell monolayer [2] = conditions: literature report; ref Chen et al., 2021; cited from earlier work
# Caco-2 cell monolayer [3] = experiment: Phenol red flux and apparent permeability across Caco-2 cell monolayer; assay type: in vitro ADME, human; conditions: AP→BL, 60 min, 5 μg/mL phenol red
Compound,Papp (AP→BL) (Caco-2 cell monolayer [1]),"Papp A→B at 180 min, 100 μg/mL (in vitro)","Papp B→A at 180 min, 100 μg/mL (in vitro)",other results
"5,2′-Dihydroxy-7,8-dimethoxyflavone glycoside",3.05 10^−6 cm/s,,,"ER (efflux ratio, Papp(BL→AP)/Papp(AP→BL)) (Caco-2 cell monolayer [1]): 2.29; Papp (BL→AP) (Caco-2 cell monolayer [1]): 6.97 10^−6 cm/s"
"COc1cc(-c2oc3cc(O)c(OC)c(O)c3c(=O)c2OC)cc(OC)c1O [5,7,4′-Trihydroxy-3,6,3′,5′-tetramethoxyflavone]",,3.24 ×10⁻⁶ cm/s,23.1 ×10⁻⁶ cm/s,"Differential metabolite TSA vs. TSB (Caco-2 cell monolayer [1]; VIP ≥ 1, p < 0.05, fold change >2.0 or < 0.5): upregulated; efflux ratio at 180 min, 100 μg/mL (in vitro): 7.13"
COc1ccc2c(c1)OCC(=Cc1cccnc1)C2=O [7-Methoxy-3-[1-(3-pyridyl)methylidene]-4-chromanone],20.87 10^−6 cm/s,,2.81 ×10⁻⁶ cm/s,"efflux ratio at 180 min, 100 μg/mL (in vitro): 0.13"
COc1cc(C[C@H]2C(=O)OC[C@@H]2Cc2ccc(OC)c(OC)c2)ccc1O [Arctigenin],,5.37 ×10⁻⁶ cm/s,25.2 ×10⁻⁶ cm/s,"efflux ratio at 180 min, 100 μg/mL (in vitro): 4.69"
O=c1c(O[C@@H]2O[C@H](CO)[C@@H](O)[C@H](O)[C@H]2O)c(-c2ccc(O)cc2)oc2cc(O)cc(O)c12 [Astragalin],,0.78 ×10⁻⁶ cm/s,4.26 ×10⁻⁶ cm/s,
COc1cc([C@@H]2Oc3c(OC)cc(CCCO)cc3[C@H]2CO)ccc1O [Dihydrodehydrodiconiferyl alcohol],,3.24 ×10⁻⁶ cm/s,18.3 ×10⁻⁶ cm/s,
COc1ccc(-c2cc(=O)c3c(O)c(OC)c(OC)cc3o2)cc1O [Eupatorin],,2.17 ×10⁻⁶ cm/s,17.3 ×10⁻⁶ cm/s,
COc1cc(/C=C/C(=O)O)ccc1O [Ferulic acid],17.37 10^−6 cm/s,,,"ER (efflux ratio, Papp(BL→AP)/Papp(AP→BL)) (Caco-2 cell monolayer [1]): 2.25; Papp (BL→AP) (Caco-2 cell monolayer [1]): 39.16 10^−6 cm/s; Mode of translocation (Caco-2 cell monolayer [2]): active transport"
COc1ccc(/C=C/C(=O)O)cc1O [Isoferulic acid],24.51 10^−6 cm/s,,49.5 ×10⁻⁶ cm/s,
COc1cc(O)c(CC=C(C)C)c2c1C(=O)CC(c1ccc(O)cc1)O2 (stereo not drawn) [Isoxanthohumol],,3.5 ×10⁻⁶ cm/s,23.2 ×10⁻⁶ cm/s,Mode of translocation (Caco-2 cell monolayer [2]): active transport
O=S1(=O)OC(c2ccc(O)cc2)(c2ccc(O)cc2)c2ccccc21 [Phenol red],,,,Phenol red flux QBL (Caco-2 cell monolayer [3]; cell culture time 3 days): 4.18 ± 0.43^a μg; Phenol red flux QBL (Caco-2 cell monolayer [3]; cell culture time 6 days): 1.94 ± 0.70^b μg; Phenol red flux QBL (Caco-2 cell monolayer [3]; cell culture time 9 days): 1.36 ± 0.44^bc μg; Phenol red flux QBL (Caco-2 cell monolayer [3]; cell culture time 12 days): 0.88 ± 0.15^cd μg; Phenol red flux QBL (Caco-2 cell monolayer [3]; cell culture time 15 days): 0.49 ± 0.21 μg and 0.49 ± 0.21^d μg; Phenol red flux QBL (Caco-2 cell monolayer [3]; cell culture time 18 days): 0.40 ± 0.09^d μg; Phenol red flux QBL (Caco-2 cell monolayer [3]; cell culture time 21 days): 0.37 ± 0.07^d μg
CC(=O)Oc1ccccc1 [Phenyl acetate],,8.89 ×10⁻⁶ cm/s,19.4 ×10⁻⁶ cm/s,
O=c1c(-c2ccc(O[C@@H]3O[C@H](CO)[C@@H](O)[C@H](O)[C@H]3O)cc2)coc2cc(O)cc(O)c12 [Sophoricoside],,1.63 ×10⁻⁶ cm/s,9.89 ×10⁻⁶ cm/s,
